One compound from ChEMBL document CHEMBL1151379, “Chemical Constituents of Hyptis suaveolens. Part I. Spectral and Biological Studies on a Triterpene Acid” (1981) can be followed below.

The assay concerns Bipolaris oryzae. Put plainly: Antifungal activity against Helminthosporium oryzae at 1000 ppm. It counts as functional.

`C[C@H]1[C@H](C)CC[C@]2(C)CC[C@]3(C(=O)O)C(=CC[C@@H]4[C@@]5(C)CC[C@H](O)C(C)(C)[C@@H]5CC[C@]43C)[C@H]12`: the Activity is given as below 10%.
